According to patent US20230382904A1, “SUBSTITUTED 4-([1,2,4]TRIAZOLO[1,5-a]PYRIDIN-6-YL)THIOPHENE-2-CARBOXAMIDE DERIVATIVES AND USE THEREOF” (The Johns Hopkins University, priority 2020, published 2023):

How the values were obtained:
DLK = DLK (Homo sapiens (Human), UniProt Q12852); test: DLK biochemical assay (TR-FRET, MKK7 phosphorylation)
Outline: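 Catalytic-domain DLK (10 nM) phosphorylates His-MKK7 (15 nM) with 60 μM ATP, 90 min at RT, in pH 7.5 HEPES buffer. Phospho-T275/S277 read by TR-FRET (Eu anti-phospho donor, XL665 anti-His acceptor) after 16 h detection, at 37° C. in 1536 or 4° C. in 384 format.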

LZK = LZK (Homo sapiens (Human), UniProt O43283); test: LZK biochemical assay (TR-FRET, MKK7 phosphorylation)
Sequence of LZK (O43283 168-409): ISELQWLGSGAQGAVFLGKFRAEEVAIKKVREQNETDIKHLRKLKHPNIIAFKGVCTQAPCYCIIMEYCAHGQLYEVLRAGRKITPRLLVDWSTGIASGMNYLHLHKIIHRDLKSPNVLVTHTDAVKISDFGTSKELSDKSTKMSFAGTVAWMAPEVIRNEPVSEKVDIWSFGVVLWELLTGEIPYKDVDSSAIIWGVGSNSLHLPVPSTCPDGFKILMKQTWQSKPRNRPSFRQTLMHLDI
Outline: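 Catalytic-domain LZK (10 nM) phosphorylated His-MKK7 (15 nM) with 15 μM ATP for 90 min at RT. Phospho-T275/S277 detected by Eu-anti-phospho-MKK7/XL665-anti-His TR-FRET after 16 h at 32° C, using the 665/Eu ratio. Buffer: 50 mM Hepes pH 7.5, 10 mM MgCl2, 1 mM DTT.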

Sequence of DLK (Q12852 1-520): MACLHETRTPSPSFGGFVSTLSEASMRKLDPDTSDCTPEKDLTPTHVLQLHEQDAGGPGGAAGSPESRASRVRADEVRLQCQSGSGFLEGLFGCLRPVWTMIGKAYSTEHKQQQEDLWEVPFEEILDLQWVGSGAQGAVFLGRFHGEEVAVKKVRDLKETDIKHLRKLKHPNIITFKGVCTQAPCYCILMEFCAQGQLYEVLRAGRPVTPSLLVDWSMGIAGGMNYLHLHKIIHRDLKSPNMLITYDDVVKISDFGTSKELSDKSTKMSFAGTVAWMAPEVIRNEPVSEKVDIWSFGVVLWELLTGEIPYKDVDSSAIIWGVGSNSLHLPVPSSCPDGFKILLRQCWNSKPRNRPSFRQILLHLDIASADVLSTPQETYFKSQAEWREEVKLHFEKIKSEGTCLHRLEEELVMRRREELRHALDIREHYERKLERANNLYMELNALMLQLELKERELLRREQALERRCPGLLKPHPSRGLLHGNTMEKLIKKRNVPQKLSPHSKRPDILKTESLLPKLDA

| SMILES | IC50 (DLK) [nM] | IC50 (LZK) [nM] |
| --- | --- | --- |
| CCNC(=O)c1cc(-c2csc(C(=O)N[C@@H](CC)c3ccccc3)c2)cn2nc(N)nc12 [Compound 82] | 12.5 | 455 |
| CC[C@H](NC(=O)c1cc(-c2cc(C(=O)N[C@@H](C)COC)c3nc(N)nn3c2)cs1)c1ccccc1 [Compound 81] | 10 | 140 |
| C[C@H](NC(=O)c1cc(-c2cc(C(=O)NC3COC3)c3nc(N)nn3c2)cs1)c1ccccc1 [Compound 65] | 100 | 19000 |
| CC[C@@H](NC(=O)c1cc(-c2cc(C(=O)N[C@H]3CCOC3)c3nc(N)nn3c2)cs1)c1ccc(F)cc1 [Compound 135] | 7.4 | 250 |
| CC[C@H](C)NC(=O)c1cc(-c2csc(C(=O)N[C@H]3CCOc4ccccc43)c2)cn2nc(N)nc12 [Compound 144-3] | 7.2 | 43 |
| C[C@H](NC(=O)c1cc(-c2cc(C(=O)NC(C)(C)CO)c3nc(N)nn3c2)cs1)c1ccccc1 [Compound 79] | 11.5 | 210 |
| CC[C@H](NC(=O)c1cc(-c2cc(C(=O)N[C@@H](C)CC)n3nc(N)nc3c2)cs1)c1ccc(F)cc1 [Compound 156] | 7.5 | 79 |
| CNC(=O)c1cc(-c2csc(C(=O)NCc3ccc(F)cc3)c2)cn2nc(N)nc12 [Compound 9] | 130 | 1200 |
| CC(C)NC(=O)c1cc(-c2csc(C(=O)N[C@H]3CCCc4ccccc43)c2)cn2nc(N)nc12 [Compound 122] | 6 | 360 |
| C[C@H](NC(=O)c1cc(-c2cc(C(=O)NC3CNC(=O)C3)c3nc(N)nn3c2)cs1)c1ccc(F)cc1 (single isomer, unassigned) [Compound 48] | 2.4 | 77 |
| C[C@H](NC(=O)c1cc(-c2cc(C(=O)NC3CCNC3)c3nc(N)nn3c2)cs1)c1ccc(F)cc1 (single isomer, unassigned) [Compound 66] | 88 | 3500 |
| Nc1nc2c(C(=O)NC3CC3)cc(-c3csc(C(=O)NCc4ccccc4)c3)cn2n1 [Compound 56] | 120 | 2300 |
| Cc1ccc([C@H](C)NC(=O)c2cc(-c3cc(C(=O)NC(C)C)c4nc(N)nn4c3)cs2)cc1 [Compound 90] | 21 | 490 |
| C[C@H](NC(=O)c1cc(-c2cc(C(=O)NC3CNC(=O)C3)c3nc(N)nn3c2)cs1)c1ccc(F)cc1 (single isomer, unassigned) [Compound 47] | 130 | 3600 |
| CN1CCCC(NC(=O)c2cc(-c3ccc4nc(N)nn4c3)cs2)C1 (stereo not shown) [Compound 181] | 3500 | > 30000 |
| CC[C@H](NC(=O)c1cc(-c2cc(C(=O)NC3COC3)c3nc(N)nn3c2)cs1)c1ccccc1 [Compound 75] | 67 | 4200 |
| CC(C)(C)NC(=O)c1cc(-c2csc(C(=O)NC3CCCCC3)c2)cn2nc(N)nc12 [Compound 14] | 34 | 270 |
| CC(C)NC(=O)c1cc(-c2csc(C(=O)N(C)[C@@H](C)c3ccc(F)cc3)c2)cn2nc(N)nc12 [Compound 99] | 330 | 2400 |
| Nc1nc2ccc(-c3csc(C(=O)NC4CCCCCC4)c3)cn2n1 [Compound 174] | 440 | > 30000 |
| CC[C@H](C)NC(=O)c1cc(-c2csc(C(=O)NCc3ccccc3)c2)cn2nc(N)nc12 [Compound 87] | 11 | 48 |
| CC(C)NC(=O)c1cc(-c2ccc3nc(N)nn3c2)cs1 [Compound 173] | 2150 | 19000 |
| CC[C@H](NC(=O)c1cc(-c2cc(C(=O)NC(C)C)c3nc(N)nn3c2)cs1)c1ccc(F)cc1 [Compound 108] | 4 | 25 |
| C[C@H](NC(=O)c1cc(-c2cc(C(=O)NC3CNC(=O)C3)c3nc(N)nn3c2)cs1)c1ccccc1 (single isomer, unassigned) [Compound 55] | 88 | 6500 |
| CC(C)NC(=O)c1cc(-c2csc(C(=O)NCC3CC3)c2)cn2nc(N)nc12 [Compound 128] | 110 | 620 |
| C[C@@H](CO)NC(=O)c1cc(-c2csc(C(=O)NCc3nc4ccccc4o3)c2)cn2nc(N)nc12 [Compound 40] | 39 | 380 |

Now from value to compound:

| IC50 (DLK) [nM] | IC50 (LZK) [nM] | SMILES |
| --- | --- | --- |
| 1390 | 5700 | Nc1nc2ccc(-c3csc(C(=O)NCc4cc(F)cc(F)c4)c3)cn2n1 [Compound 222] |
| 970 | 20000 | Nc1nc2c(C(F)(F)F)cc(-c3csc(C(=O)NC4CCCCC4)c3)cn2n1 [Compound 379] |
| 800 | 3800 | COc1ccc2oc(CNC(=O)c3cc(-c4ccc5nc(N)nn5c4)cs3)nc2c1 [Compound 247] |
| > 30000 | > 30000 | Cc1sc(C(=O)NC2CCCCC2)cc1-c1ccc2nc(N)nn2c1 [Compound 312] |
| 760 | 20500 | CC(NC(=O)c1cc(-c2ccc3nc(N)nn3c2)cs1)c1nccn1C (stereo not shown) [Compound 350] |
| 100 | 16500 | CC(C)C(NC(=O)c1cc(-c2ccc3nc(N)nn3c2)cs1)c1ccc(F)cc1 (stereo not shown) [Compound 301] |
| 2600 | > 30000 | CN(CCc1ccccc1)C(=O)c1cc(-c2ccc3nc(N)nn3c2)cs1 [Compound 284] |
| 255 | > 30000 | Nc1nc2ccc(-c3csc(C(=O)N[C@H](c4ccccc4)C(F)(F)F)c3)cn2n1 [Compound 326] |
| 500 | 11000 | Nc1nc2cc(-c3csc(C(=O)NCc4ccccc4)c3)ccn2n1 [Compound 365] |
| 5700 | > 30000 | CCN1CCC[C@@H](NC(=O)c2cc(-c3ccc4nc(N)nn4c3)cs2)C1 [Compound 287] |
| 1500 | > 30000 | COC1CCC(NC(=O)c2cc(-c3ccc4nc(N)nn4c3)cs2)C1 (stereo not shown) [Compound 272] |
| 2600 | 2000 | Nc1nc2ccc(-c3csc(C(=O)Nc4ccccc4CO)c3)cn2n1 [Compound 289] |
| 260 | 11000 | Nc1nc2ccc(-c3csc(C(=O)NCc4cccs4)c3)cn2n1 [Compound 274] |
| 75.5 | 1130 | C[C@H](NC(=O)c1cc(-c2ccc3nc(N)nn3c2)cs1)c1ccc(F)cc1 [Compound 302] |
| 2000 | > 30000 | Nc1nc2ccc(-c3csc(C(=O)NCC4CCOCC4)c3)cn2n1 [Compound 188] |
| 51 | 17000 | Nc1nc2ccc(-c3csc(C(=O)NC4(c5ccc(F)cc5)CCCC4)c3)cn2n1 [Compound 310] |
| 3500 | > 30000 | CCNC(=O)c1cc(-c2ccc3nc(N)nn3c2)cs1 [Compound 270] |
| 110 | 1200 | C[C@H](NC(=O)c1cc(-c2ccc3nc(N)nn3c2)cs1)c1nc2ccccc2o1 [Compound 358] |
| 1660 | > 30000 | Nc1nc2ccc(-c3csc(C(=O)Nc4ccccc4Cl)c3)cn2n1 [Compound 224] |

| IC50 (DLK) [nM] | IC50 (LZK) [nM] | SMILES |
| --- | --- | --- |
| 400 | > 30000 | CC(NC(=O)c1cc(-c2ccc3nc(N)nn3c2)cs1)c1ccc(F)cc1F (stereo not shown) [Compound 360] |
| 820 | > 30000 | COc1ccc(CNC(=O)c2cc(-c3ccc4nc(N)nn4c3)cs2)cc1OC [Compound 202] |
| 470 | 21000 | Nc1nc2ccc(-c3csc(C(=O)NCc4ccc(CN5CCCC5)cc4)c3)cn2n1 [Compound 344] |
| 590 | > 30000 | COc1cccc(C(C)(C)NC(=O)c2cc(-c3ccc4nc(N)nn4c3)cs2)c1 [Compound 269] |
| 310 | > 30000 | Nc1nc2cc(-c3csc(C(=O)NCC4CCCCC4)c3)ccn2n1 [Compound 366] |
| 470 | 18000 | COc1cc(CNC(=O)c2cc(-c3ccc4nc(N)nn4c3)cs2)ccn1 [Compound 234] |
| 740 | 21000 | CCN(CC)Cc1ccc(CNC(=O)c2cc(-c3ccc4nc(N)nn4c3)cs2)cc1 [Compound 329] |
| 2450 | 7600 | COc1cccc(CN(C)C(=O)c2cc(-c3ccc4nc(N)nn4c3)cs2)c1 [Compound 213] |
| 1800 | 9500 | Nc1nc2c(C(F)(F)F)cc(-c3csc(C(=O)NCc4ccccc4)c3)cn2n1 [Compound 378] |
| 410 | 2500 | CCc1nnc(-c2cc(-c3csc(C(=O)NCc4ccc(F)cc4)c3)cn3nc(N)nc23)s1 [Compound 394] |
| 200 | 25000 | COc1cccc(C(C)NC(=O)c2cc(-c3ccc4nc(N)nn4c3)cs2)c1 (stereo not shown) [Compound 232] |
| 710 | 14000 | COc1cccc(C2(NC(=O)c3cc(-c4ccc5nc(N)nn5c4)cs3)CC2)c1 [Compound 291] |
| 860 | 27000 | CN1CCN(Cc2ccc(CNC(=O)c3cc(-c4ccc5nc(N)nn5c4)cs3)cc2)CC1 [Compound 343] |
| 4400 | > 30000 | Nc1nc2cc(-c3csc(C(=O)NCc4ccc(F)cc4)c3)cc(C(=O)O)n2n1 [Compound 370] |
| 420 | 15000 | Cn1cccc1CNC(=O)c1cc(-c2ccc3nc(N)nn3c2)cs1 [Compound 276] |
| 1760 | 3950 | CCC(C)c1nnc(-c2cc(-c3csc(C(=O)N[C@@H](C)c4ccc(F)cc4)c3)cn3nc(N)nc23)s1 (stereo partly shown) [Compound 399] |
| 615 | 5000 | Nc1nc2ccc(-c3csc(C(=O)NCc4cccc(Cl)c4)c3)cn2n1 [Compound 193] |
| 42 | 6100 | Nc1nc2ccc(-c3csc(C(=O)NC(c4ccccc4)C4CC4)c3)cn2n1 (stereo not shown) [Compound 327] |
